Data reported in patent publication US9617229B2, “Phenylmorpholines and analogues thereof” (Research Triangle Institute, priority 2010, dated 2017).
Structures can show the parent of a compound that is named as a salt. Where two headings read alike, the source gives them in different places.

Legend:
DAT = DAT (Rattus norvegicus, UniProt P23977); assay: DA release assay (synaptosomes, [3H]MPP+); type: biochemical; parameters: the supernatants were retained on ice (synaptosomal preparation); from tissue; host or cells: rat caudate synaptosomes; conditions: for activation at 10 µM: Table 3
Sequence of DAT (P23977 whole entry): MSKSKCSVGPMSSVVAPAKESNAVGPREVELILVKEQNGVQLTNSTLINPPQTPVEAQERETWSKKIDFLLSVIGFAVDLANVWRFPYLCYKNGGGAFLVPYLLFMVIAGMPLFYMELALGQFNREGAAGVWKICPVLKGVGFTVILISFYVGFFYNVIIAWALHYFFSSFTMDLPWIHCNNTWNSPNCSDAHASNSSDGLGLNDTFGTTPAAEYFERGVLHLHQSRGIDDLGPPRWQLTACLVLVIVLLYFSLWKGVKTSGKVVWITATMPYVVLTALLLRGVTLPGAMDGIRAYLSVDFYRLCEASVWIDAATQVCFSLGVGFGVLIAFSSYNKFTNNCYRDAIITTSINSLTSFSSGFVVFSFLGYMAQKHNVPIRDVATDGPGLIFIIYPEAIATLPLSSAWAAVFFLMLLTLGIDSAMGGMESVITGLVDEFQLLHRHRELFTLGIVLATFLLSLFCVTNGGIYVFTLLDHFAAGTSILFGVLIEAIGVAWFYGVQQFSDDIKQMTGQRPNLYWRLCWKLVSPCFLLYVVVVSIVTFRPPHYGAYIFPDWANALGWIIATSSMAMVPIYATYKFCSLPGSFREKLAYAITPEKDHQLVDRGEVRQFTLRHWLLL
Method: (§1) Rat caudate (for DA release) or whole brain minus cerebellum and caudate (for NE and 5-HT release), was homogenized in ice-cold 10% sucrose containing 1 μM reserpine. Nomifensine (100 nM) and GBR12935 (100 nM) were added to the sucrose solution for [^3H]5-HT release experiments to block any potential [^3H]5-HT reuptake into NE and DA nerve terminals. For the DA release assay, 100 nM desipramine and 100 nM citalopram were added to block [^3H]MPP^+ uptake into NE and 5-HT nerves. For the NE release assay, 50 nM GBR12935 and 100 nM citalopram were added to block [^3H]MPP^+ uptake into DA and 5-HT nerves. After 12 strokes with a Potter-Elvehjem homogenizer, homogenates were centrifuged at 1000×g for 10 min at 0-4° C. and the supernatants were retained on ice (synaptosomal preparation).
(§2) After incubation to steady state, 850 μl of synaptosomes preloaded with [^3H]ligand were added to 12×75 mm polystyrene test tubes that contained 150 μl test drug in uptake buffer plus 1 mg/ml BSA. After 5 min (^3H]5-HT) or 30 min (NE and DA assays) the release reaction was terminated by dilution with 4 ml wash buffer (10 mM Tris-HCl pH 7.4 containing 0.9% NaCl at 25° C.) followed by rapid vacuum filtration over Whatman GF/B filters using a Brandel Harvester. The filters were rinsed twice with 4 ml wash buffer using the Brandel Harvester, and the retained tritium was counted by a Taurus liquid scintillation counter at 40% efficiency after an overnight extraction in 3 ml Cytoscint (ICN).
(§3) In substrate reversal experiments, statistical significance was determined using the Student's t-test.

5-HT2B receptor [1] = biological target: T1, 5-HT2B receptor (Homo sapiens, UniProt P41595); assay: 5-HT2B activity, agonist; type: cell-based
T1 sequence (P41595 whole entry): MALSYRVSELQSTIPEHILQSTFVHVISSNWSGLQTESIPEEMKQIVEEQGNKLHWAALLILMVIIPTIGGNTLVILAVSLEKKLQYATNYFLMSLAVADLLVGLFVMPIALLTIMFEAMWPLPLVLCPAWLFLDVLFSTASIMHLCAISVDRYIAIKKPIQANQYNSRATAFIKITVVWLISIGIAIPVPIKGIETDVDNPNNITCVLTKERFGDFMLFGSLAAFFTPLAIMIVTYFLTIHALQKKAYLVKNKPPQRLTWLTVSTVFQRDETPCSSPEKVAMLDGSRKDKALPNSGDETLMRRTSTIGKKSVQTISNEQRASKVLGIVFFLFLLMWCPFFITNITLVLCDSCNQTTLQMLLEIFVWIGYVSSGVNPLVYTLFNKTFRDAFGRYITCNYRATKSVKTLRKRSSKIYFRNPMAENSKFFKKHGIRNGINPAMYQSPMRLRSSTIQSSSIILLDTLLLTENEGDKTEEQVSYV

NET = biological target: T2, NET (Rattus norvegicus, UniProt Q63380); assay: NE release assay (synaptosomes, [3H]MPP+); type: biochemical; conditions: for NE Rel (%): % EC50 of release
T2 construct: the supernatants were retained on ice (synaptosomal preparation); from tissue; host or cells: rat whole brain minus cerebellum and caudate, synaptosomes
T2 sequence (Q63380 1-617): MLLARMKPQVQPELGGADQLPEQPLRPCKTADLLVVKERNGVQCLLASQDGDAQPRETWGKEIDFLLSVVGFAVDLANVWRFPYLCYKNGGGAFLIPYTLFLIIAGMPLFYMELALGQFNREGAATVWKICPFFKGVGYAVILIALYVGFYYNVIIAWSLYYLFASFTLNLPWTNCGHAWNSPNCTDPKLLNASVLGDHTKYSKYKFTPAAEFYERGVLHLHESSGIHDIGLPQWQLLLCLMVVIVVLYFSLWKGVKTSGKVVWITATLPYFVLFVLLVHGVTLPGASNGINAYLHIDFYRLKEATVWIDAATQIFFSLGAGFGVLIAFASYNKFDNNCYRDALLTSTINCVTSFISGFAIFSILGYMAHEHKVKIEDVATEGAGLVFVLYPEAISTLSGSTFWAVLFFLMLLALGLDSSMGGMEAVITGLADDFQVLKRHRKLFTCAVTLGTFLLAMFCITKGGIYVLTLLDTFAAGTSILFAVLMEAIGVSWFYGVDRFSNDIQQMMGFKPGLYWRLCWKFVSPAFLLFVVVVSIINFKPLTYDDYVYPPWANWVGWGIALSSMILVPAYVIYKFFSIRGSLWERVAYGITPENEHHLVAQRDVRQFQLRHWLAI
Method: as §1, §2, §3

SERT [2] = biological target: T3, SERT (Rattus norvegicus, UniProt P31652); assay: 5-HT release assay (synaptosomes, [3H]5-HT); type: biochemical; parameters: the supernatants were retained on ice (synaptosomal preparation); from tissue; host or cells: rat whole brain minus cerebellum and caudate, synaptosomes; conditions: for 5HT Rel (%): Table 4, % EC50 of release
T3 sequence (P31652 whole entry): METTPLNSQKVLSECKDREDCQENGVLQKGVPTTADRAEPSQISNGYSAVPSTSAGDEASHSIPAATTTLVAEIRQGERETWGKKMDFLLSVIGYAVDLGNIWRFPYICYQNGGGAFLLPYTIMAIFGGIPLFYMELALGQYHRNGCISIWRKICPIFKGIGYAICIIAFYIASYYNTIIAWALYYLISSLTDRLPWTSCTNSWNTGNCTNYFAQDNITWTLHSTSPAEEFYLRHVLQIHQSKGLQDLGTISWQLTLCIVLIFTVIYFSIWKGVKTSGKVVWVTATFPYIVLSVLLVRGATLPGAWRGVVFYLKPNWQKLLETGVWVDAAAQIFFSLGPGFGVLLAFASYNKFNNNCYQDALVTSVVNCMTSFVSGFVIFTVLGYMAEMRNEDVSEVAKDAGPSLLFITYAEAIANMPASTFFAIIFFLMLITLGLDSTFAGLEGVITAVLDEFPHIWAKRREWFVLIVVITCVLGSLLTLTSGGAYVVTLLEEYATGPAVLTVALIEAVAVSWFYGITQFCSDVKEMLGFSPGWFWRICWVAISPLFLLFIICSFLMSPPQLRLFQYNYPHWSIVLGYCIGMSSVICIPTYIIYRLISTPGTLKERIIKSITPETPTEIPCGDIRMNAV
Method: as §1, §2, §3

5-HT2B receptor [3] = biological target: T1, 5-HT2B receptor; assay: 5-HT2B activity, antagonist; type: cell-based
SERT [4] = biological target: T3, SERT; assay: 5HT uptake inhibition; type: biochemical

`COc1cccc([C@H]2CN[C@@H](C)CO2)c1` [PAL 880, (2S,5S)-2-(3-Methoxy-phenyl)-5-methyl-morpholine] was tested, and the “DA Rel (%)” value (DAT; Table 5) was 56%.
`C[C@@H]1NCCO[C@H]1c1ccccc1` [PAL57, reference compound] showed an activation at 10 µM (5-HT2B receptor [1]) of 0%, an EC50 (DAT) of 415 nM and an EC50 (NET; Release NE (EC50 nm), Table 3, rat brain synaptosomes) of 63 nM. The “Release 5-HT (EC50 nm)” value (SERT [2]; Table 3, rat brain synaptosomes) was “inactive”.
For `C[C@H]1CO[C@@H](c2ccccc2)CN1` [PAL 730, (2S,5S)-5-Methyl-2-phenyl-morpholine], the EC50 (DAT) was 212 nM, the EC50 (NET) was 79 nM and the EC50 (SERT [2]) was 107 nM.
`c1ccc(C2CNCCO2)cc1` (centres unmarked) [PAL632] was tested, and the activation at 10 µM (5-HT2B receptor [1]) was 2%, the EC50 (DAT) was 86 nM and the activation at 10 µM (DAT) was 98%. For the same molecule, the inhibition at 1 µM (5-HT2B receptor [3]) was 12%, the EC50 (NET; NE Rel (EC50), Table 4) was 79 nM and the activation at 10 µM (NET; Table 3) was 96%. For the same molecule, the EC50 (SERT [2]) was 20300 nM and the activation at 10 µM (SERT [2]; Table 3) was 31%.
`C[C@H]1CO[C@@H](c2cccc(C(F)(F)F)c2)CN1` [PAL 895, (2S,5S)-5-Methyl-2-(3-trifluoromethyl-phenyl)-morpholine] was tested, and the “DA Rel (%)” value (DAT; Table 5) was 45%.
In the case of `CC1NCCOC1c1ccc(Cl)c(Cl)c1.Cl` (centres unmarked) [PAL 788, 3-Methyl-[(3′,4′-Dichloro)-2-Phenyl]morpholine hydrochloride], the “DA releaser activity (in words)” value (DAT) is reported as “DA/NE releasers”, the “DA Rel (%)” value (DAT; Table 4, % EC50 of release) is reported as 60% and the “NE releaser activity (in words)” value (NET) is reported as “DA/NE releasers”. The “NE Rel (%)” value (NET; Table 4) was 98%, the “5HT uptake inhibition (in words)” value (SERT [4]) was 5HT uptake inhibitors and the “5HT Up (%)” value (SERT [4]; Table 4) was 95%.
In the case of `CC1NCCOC1c1cccc(O)c1.Cl` (centres unmarked) [PAL 780, 3-Methyl-[(3′-Hydroxy)-2-Phenyl]morpholine hydrochloride], the “DA Rel (%)” value (DAT; Table 4, % EC50 of release) is reported as 97%, the “NE Rel (%)” value (NET; Table 4) is reported as 100% and the “5HT Rel (%)” value (SERT [2]) is reported as 70%.
With `CC1NCCOC1c1ccc(C#N)cc1.CC1NCCOC1c1ccc(C#N)cc1.O=C(O)/C=C/C(=O)O` (centres unmarked) [PAL 772, 3-Methyl-[(4′-Cyano)-2-Phenyl]morpholine (0.5 fumarate)] the “DA Rel (%)” value (DAT; Table 4, % EC50 of release) was 0%, the “NE Rel (%)” value (NET; Table 4) was 100% and the “5HT Rel (%)” value (SERT [2]) was 53%.
In the case of `CC1NCCOC1c1ccccc1` (single isomer, unassigned; (-)) [(−)-isomer, reference compound], the “DA releaser activity (in words)” value (DAT) is reported as “active as a releaser, but is not as potent”.
In the case of `CC1NCCOC1c1ccc2ccccc2c1` (centres unmarked) [PAL 704, 3-Methyl-2-(2′-Naphthyl)morpholine hydrochloride], the “DA releaser activity (in words)” value (DAT) is reported as “DA/NE releasers”, the EC50 (DAT) is reported as 111 nM and the “NE releaser activity (in words)” value (NET) is reported as “DA/NE releasers”. The EC50 (NET; NE Rel (EC50), Table 4) was 203 nM, the “5HT uptake inhibition (in words)” value (SERT [4]) was 5HT uptake inhibitors and the EC50 (SERT [4]) was 105 nM.
With `CC1NCCOC1c1cccc(C#N)c1.Cl` (centres unmarked) [PAL 786, 3-Methyl-[(3′-Cyano)-2-Phenyl]morpholine hydrochloride] the “DA Rel (%)” value (DAT; Table 4, % EC50 of release) was 99%, the “NE Rel (%)” value (NET; Table 4) was 100% and the “5HT Rel (%)” value (SERT [2]) was 99%.
`C[C@H]1NCCOC1c1cccc(Cl)c1` (stereo in doubt) [PAL594, 2-(3-chloro-phenyl)-3-methyl-morpholine] gave an activation at 10 µM (5-HT2B receptor [1]) of 2%, an EC50 (DAT) of 27 nM and an activation at 10 µM (DAT) of 100%. The inhibition at 1 µM (5-HT2B receptor [3]) was 28%, the EC50 (NET; NE Rel (EC50), Table 4) was 75 nM and the activation at 10 µM (NET; Table 3) was 82%. For the same molecule, the “5HT releaser activity (in words)” value (SERT [2]) was “improvements in 5HT release”, the EC50 (SERT [2]) was 301 nM and the activation at 10 µM (SERT [2]; Table 3) was 95%.
With `C[C@H]1CO[C@@H](c2ccc(C(F)(F)F)cc2)CN1` [PAL 910, (2S,5S)-5-Methyl-2-(4-trifluoromethyl-phenyl)-morpholine] the “DA Rel (%)” value (DAT; Table 5) was 15%.
For `CC1NCCOC1(O)c1ccccc1` (centres unmarked) [PAL583, 3-methyl-2-phenylmorpholin-2-ol], the activation at 10 µM (5-HT2B receptor [1]) was 0%, the activation at 10 µM (DAT) was 29% and the inhibition at 1 µM (5-HT2B receptor [3]) was 6%. It also gave an activation at 10 µM (NET; Table 3) of 69% and an activation at 10 µM (SERT [2]; Table 3) of 0%.
`C[C@H]1CO[C@@H](c2ccc(F)cc2)CN1` [PAL 903, (2S,5S)-2-(4-Fluoro-phenyl)-5-methyl-morpholine] was tested, and the “DA Rel (%)” value (DAT; Table 5) was 65%.
For `COc1ccc(C2OCCNC2C)cc1.Cl` (centres unmarked) [PAL 751, 3-Methyl-[(4′-Methoxy)-2-Phenyl]morpholine hydrochloride], the “DA Rel (%)” value (DAT; Table 4, % EC50 of release) was 50%, the “NE Rel (%)” value (NET; Table 4) was 84% and the “5HT Rel (%)” value (SERT [2]) was 64%.
With `C[C@H]1CO[C@@H](c2cccc(F)c2)CN1` [PAL 890, (2S,5S)-2-(3-Fluoro-phenyl)-5-methyl-morpholine] the “DA Rel (%)” value (DAT; Table 5) was 96%.
